From patent publication US20130096145A1, “Use of 1H-quinazoline-2,4-diones” (Novartis AG, priority 2010, published 2013) come the findings set out here.

For one assay, the system named is OF1 mice. The assay is described as follows: Murine maximal electroshock test (MES Test). Format: in vivo. Particulars: for MES-Test (1 h, po) ED50: p.o.; for MES-Test (1 h, po) protection @50: percentage of protected mice (5 per condition) @50, p.o.; for MES-Test (1 h, po) protection @25: percentage of protected mice (5 per condition) @25, p.o. The procedure:
(§1) Compounds of the invention were tested in OF1 mice using the maximal electroshock test (MES Test) described in detail by Schmutz et al., Naunyn-Schmiedeberg's Arch Pharmacol 1990, 342, 61-66. Briefly, generalized tonic-clonic convulsions of the hind extremities were induced by passing electrical current through temporal electrodes (50 Hz, 18 mA, 0.2s). […] 30 mg/kg carbamazepine was used as a positive control; mice were classified as protected by a compound if the duration of the seizure lasted only 3 second or less. Five mice were used for each treatment condition and the percentage of protected mice was used as readout (i.e. a compound could give 0%, 20%, 40%, 60%, 80% or 100% protection). Compounds of the invention were given at a dose of 50 mg/kg, p.o., 1 hour prior to induction of convulsions (i.e. “pre-treatment time -1 h”). ED50 values (ED: effective dose) were calculated using GraphPad Prism, v4.02. 15 s after shock administration, mouse blood was collected for determination of compounds' blood exposure.
On the technique in general: In the maximal electroshock model the usual endpoint is tonic extension of the hind limbs.

The test system of the next assay is mouse. Description: Oral bioavailability: audiogenic mouse test and/or MES test. Type of assay: in vivo. Particulars: oral administration. The procedure: The oral bioavailability was tested using the audiogenic mouse test (Audiogenic seizures, R. L. Collins; Chapter 14, pages: 347-372. In: Experimental Models of Epilepsy; By: Pupura, Penry, Tower, Woodbury, Walter, Raven Press, New York, 1972. Standard Book Number: 0-911216-26-X) and/or the MES test.
as §1

Setting [1] is: pre-treatment time 1 h, protected = seizure duration 3 s or less.

Turning to `CS(=O)(=O)Nn1c(=O)[nH]c2cc(C(F)(F)F)c(C3CCCO3)cc2c1=O` [B-2 (R), N-[2,4-Dioxo-6-(tetrahydro-furan-2-yl)-7-trifluoromethyl-1,4-dihydro-2H-quinazolin-3-yl]-methanesulfonamide], the “MES-Test (1 h, po) ED50” value with OF1 mice (setting [1]) is reported as 12.8 mg/kg.

Turning to `CS(=O)(=O)Nn1c(=O)[nH]c2cc(C(F)(F)F)c(C3CCCO3)cc2c1=O` [B-2 (S), N-[2,4-Dioxo-6-(tetrahydro-furan-2-yl)-7-trifluoromethyl-1,4-dihydro-2H-quinazolin-3-yl]-methanesulfonamide], the “MES-Test (1 h, po) ED50” value with OF1 mice (setting [1]) is on record as 33.2 mg/kg.

As to `Cn1nncc1-c1cc2c(=O)n(NS(C)(=O)=O)c(=O)[nH]c2cc1C(F)(F)F` [Comparative, N-(6-(1-methyl-1H-1,2,3-triazol-5-yl)-2,4-dioxo-7-trifluoromethyl-1,4-dihydro-2H-quinazolin-3-yl]-methanesulfonamide, reference compound], in the assay with OF1 mice (1 h), the “MES-Test (1 h, po) protection @50” value stood at 0% @50. In addition, in the assay with mouse, the “In vivo orally active” value is given as “No”.

`CS(=O)(=O)Nn1c(=O)[nH]c2cc(C(F)(F)F)c(C3CCOC3)cc2c1=O` (stereo not shown) [Compound B-3, N-[2,4-Dioxo-6-(tetrahydro-furan-3-yl)-7-trifluoromethyl-1,4-dihydro-2H-quinazolin-3-yl]-methanesulfonamide]: in the assay with OF1 mice (1 h), the “MES-Test (1 h, po) protection @25” value came to 20% @25^3. For the same compound, the “In vivo orally active” value in the assay with mouse is reported as “Yes”.

With `COCCn1nccc1-c1cc2c(=O)n(NS(C)(=O)=O)c(=O)[nH]c2cc1C(C)C` [Compound C-1, N-{7-Isopropyl-6-[2-(2-methoxy-ethyl)-2H-pyrazol-3-yl]-2,4-dioxo-1,4-dihydro-2H-quinazolin-3-yl}-methanesulfonamide], the “MES-Test (1 h, po) protection @25” value in the assay with OF1 mice (1 h) is 40% @25. The “In vivo orally active” value with mouse is “yes”.

By ED50 is commonly meant the dose at which the effect has come halfway, by size or by number of responders. Take `CC(C)n1nccc1-c1cc2c(=O)n(NS(C)(=O)=O)c(=O)[nH]c2cc1CF` [Compound C-3, N-[7-Fluoromethyl-6-(2-isopropyl-2H-pyrazol-3-yl)-2,4-dioxo-1,4-dihydro-2H-quinazolin-3-yl]-methanesulfonamide]: the ED50 with OF1 mice (Mus musculus, po, pre-treatment time 1 h, protected = seizure duration 3 s or less) was determined as 13.5 mg/kg. The “In vivo orally active” value in the assay on mouse is “Yes”.

As to `CCc1cc2[nH]c(=O)n(NS(C)(=O)=O)c(=O)c2cc1-c1ccnn1C(C)C` [Compound C-6, N-[7-Ethyl-6-(2-isopropyl-2H-pyrazol-3-yl)-2,4-dioxo-1,4-dihydro-2H-quinazolin-3-yl]-methanesulfonamide], in the assay on OF1 mice (1 h), the “MES-Test (1 h, po) protection @50” value is listed as 20% @50. For the same compound, the “In vivo orally active” value in the assay with mouse was “yes”.

With `CC(C)c1cc2[nH]c(=O)n(NS(C)(=O)=O)c(=O)c2cc1-c1ccnn1C(C)C` [Compound C-8, N-[7-Isopropyl-6-(2-isopropyl-2H-pyrazol-3-yl)-2,4-dioxo-1,4-dihydro-2H-quinazolin-3-yl]-methanesulfonamide], the “MES-Test (1 h, po) protection @50” value with OF1 mice (1 h) turned out to be 40% @50. Besides, in the assay on mouse, the “In vivo orally active” value was “yes”.

Turning to `Cn1nccc1-c1cc2c(=O)n(NS(C)(=O)=O)c(=O)[nH]c2cc1C(C)(F)F` [Compound C-15, N-[7-(1,1-difluoro-ethyl)-6-(2-methyl-2H-pyrazol-3-yl)-2,4-dioxo-1,4-dihydro-2H-quinazolin-3-yl]-methanesulfonamide], in the assay on OF1 mice (percentage of protected mice (5 per condition) @20, p.o., 1 h), the “MES-Test (1 h, po) protection @20” value came to 80% @20. In addition, the “In vivo orally active” value in the assay with mouse was “Yes”.
